Source: PubChem BioAssay (NCI)
“And” between values parts separate entries of the source, which are not always exact repeats. Identical values can stand only once.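 Values below derive from 48-hour exposures of cells grown in 96-well plates, with endpoints linearly interpolated between the two concentrations bracketing the appropriate inhibition level. Abbreviation: GI50, concentration required for 50% inhibition of growth. Definition used: TGI = concentration required for complete inhibition of growth.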

Experiments:
Assay in all cases: NCI tumour cell line growth inhibition, 48 h
UACC-62 melanoma = test system: UACC-62 melanoma
SK-MEL-28 melanoma = test system: SK-MEL-28 melanoma
OVCAR-4 ovarian = test system: OVCAR-4 ovarian
NCI-H23 lung = test system: NCI-H23 lung
U251 CNS = test system: U251 CNS
NCI-H226 lung = test system: NCI-H226 lung
M14 melanoma = test system: M14 melanoma
CCRF-CEM leukemia = test system: CCRF-CEM leukemia
UO-31 renal = test system: UO-31 renal
SNB-19 CNS = test system: SNB-19 CNS

| Structure (SMILES) | TGI (UACC-62 melanoma) | TGI (SK-MEL-28 melanoma) | TGI (OVCAR-4 ovarian) | TGI (NCI-H23 lung) | TGI (U251 CNS) | TGI (NCI-H226 lung) | TGI (M14 melanoma) | TGI (CCRF-CEM leukemia) | TGI (UO-31 renal) | TGI (SNB-19 CNS) | GI50 (UACC-62 melanoma) [µM] | GI50 (SK-MEL-28 melanoma) [µM] | GI50 (OVCAR-4 ovarian) [µM] | GI50 (NCI-H23 lung) [µM] | GI50 (U251 CNS) [µM] | GI50 (NCI-H226 lung) [µM] | GI50 (M14 melanoma) [µM] | GI50 (CCRF-CEM leukemia) [µM] | GI50 (UO-31 renal) [µM] | GI50 (SNB-19 CNS) |
| --- | --- | --- | --- | --- | --- | --- | --- | --- | --- | --- | --- | --- | --- | --- | --- | --- | --- | --- | --- | --- |
| Cc1cc(Cl)ccc1NC(=O)C1C(=O)C(=O)N(c2ccc(Cl)cc2C)C1=O (stereo unspecified) | > 100 µM | > 100 µM | > 100 µM | > 100 µM | > 100 µM | > 100 µM | > 100 µM | > 100 µM | > 100 µM | 68.1 µM | – | – | – | – | – | – | – | – | – | – |
| O=C(/C=C/c1ccccc1)Nc1ncc(Cc2ccccc2)s1 | 4.28 µM | > 100 µM | 6.54 µM | > 49.1 µM | 6.25 µM | > 20.8 µM | 3.03 µM | > 80.8 µM | 23.3 µM | > 52.3 µM | 0.125 | 1.7 | 1.38 | 0.562 | 0.271 | 1.16 | 0.114 | 0.194 | 0.463 | 0.392 µM |
| COC(=O)c1ccc(CS(=O)(=O)c2ccccc2)cc1 | > 100 µM | > 100 µM | > 100 µM | > 100 µM | > 100 µM | > 100 µM | > 100 µM | > 100 µM | > 100 µM | > 100 µM | – | – | – | – | – | – | – | – | – | – |
| O=c1ncc(I)c[nH]1 | > 100 µM | > 100 µM | > 100 µM | > 100 µM | > 100 µM | > 100 µM | > 100 µM | > 100 µM | > 100 µM | > 100 µM | > 100 | > 100 | > 100 | > 100 | > 100 | > 100 | > 100 | > 100 | > 100 | > 100 µM |
| Cc1ccc(C(=O)Nc2ccc(CN3CCN(C)CC3)c(C(F)(F)F)c2)cc1C#Cc1cnc(N)c2ccc(C#N)cc12 | 3.64 µM | 3.47 µM | 11.8 µM | 18.2 µM | 9.23 µM | > 50 µM | 2.34 µM | 18 µM | 2.26 µM | 19.9 µM | 0.0212 | 0.108 | 0.375 | 1.1 | 0.393 | 0.471 | 0.0234 | 0.807 | 0.0224 | 3.2 µM |
| COc1ccc(-c2c(-c3cc4c(c(OC)c3OC)OCO4)noc2N)cc1 | > 100 µM | > 100 µM | > 100 µM | > 100 µM | > 100 µM | > 100 µM | 3.24 µM | > 100 µM | > 100 µM | > 100 µM | 0.534 | 0.459 | 0.671 | 0.427 | 0.417 | 0.804 | 0.231 | 0.4 | 2.69 | 0.661 µM |
| C/C(=N\NC(=O)c1cccc(S(=O)(=O)N2CCN(C)CC2)c1)c1cc(Cl)ccc1O | 6.4 µM | > 61.3 µM | > 100 µM | 45 µM | > 100 µM | 8.42 µM | 9.85 µM | > 100 µM | 12.6 µM | > 100 µM | 0.873 | 1.36 | 0.545 | 0.74 | 0.414 | 0.713 | 1.06 | 0.422 | 0.184 | 2.03 µM |
| C[C@@]1([C@H](OC(=O)c2cccc3ccccc23)C(N)=O)CO1 | 2.24 µM | 15.2 µM | > 76.6 µM | 5.65 µM | 7.89 µM | 5.9 µM | 5.31 µM | > 100 µM | 8.8 µM | > 37.5 µM | 0.452 | 3.08 | 4.66 | 1.23 | 0.997 | 1.46 | 1.36 | 1.1 | 2.25 | 5.75 µM |
| CC(=O)O[C@H]1CC[C@@]2(C)C(=CC[C@@H]3C2CC[C@]2(C)C(=O)NC(=O)CC32)C1 (stereo partly specified) | > 100 µM | > 100 µM | > 100 µM | > 100 µM | > 100 µM | > 100 µM | > 100 µM | > 100 µM | > 100 µM | > 100 µM | – | – | – | – | – | – | – | – | – | – |
| CN(C)c1ccc(/C=N/NC(=O)CSc2nc3sc4c(c3c(=O)n2-c2ccccc2)CCCCC4)cc1 | > 100 µM | > 100 µM | 6.49 µM | > 100 µM | 17.1 µM | > 100 µM | > 100 µM | > 100 µM | > 100 µM | 80.9 µM | 4.04 | 4.42 | 2.56 | 3.79 | 3.2 | 4.26 | 8.26 | 5.82 | > 100 | 6.66 µM |
| CS(=O)(=O)OCCCCOS(C)(=O)=O | 250 µM and > 1000 µM | 232 µM and > 1000 µM | 223 µM and > 1000 µM | 249 µM and > 1000 µM | 238 µM and > 1000 µM | 250 µM and > 1000 µM | 250 µM and > 1000 µM | 250 µM and > 877 µM | 250 µM and > 1000 µM | 233 µM and > 1000 µM | 472 | 980 | > 1000 | 685 | 469 | > 966 | 765 | 214 | > 886 | > 862 µM |
| COc1ccc2nc(-c3ccc(Cl)cc3)cc(-c3nnc(SCC(=O)Nc4ccc(/C(C)=N\O)cc4)o3)c2c1 | 9.93 µM | 7.63 µM | 1.84 µM | 4.3 µM | 1.9 µM | 14.4 µM | 7.58 µM | > 50 µM | 20.5 µM | 3.09 µM | 2.89 | 1.81 | 0.904 | 1.38 | 0.974 | 3.86 | 1.81 | 2.49 | 3.26 | 1.18 µM |
| O=C(/C=C/c1ccc[nH]1)c1ccccc1 | > 100 µM | > 100 µM | > 100 µM | > 100 µM | > 100 µM | > 100 µM | > 100 µM | > 100 µM | > 100 µM | > 100 µM | – | – | – | – | – | – | – | – | – | – |
| CC1OC(OC23C(=O)CC(C)(O)CC2(O)C=CC2=C3C(=O)c3ccc(C4CC(OC5CCC(OC6CC(O)C(O)C(C)O6)C(C)O5)C(O)C(C)O4)c(O)c3C2=O)CCC1O (stereo unspecified) | 30 µM and 27.1 µM | 29 µM and 27.3 µM | 33.6 µM and 30 µM | 33.1 µM and 30.7 µM | 29.5 µM and 30.8 µM | 38.5 µM and 35.5 µM | 32.3 µM and 26.7 µM | > 100 µM | 32.2 µM and 32.4 µM | > 100 µM and 51.7 µM | – | – | – | – | – | – | – | – | – | 50.8 µM and 22.8 µM |
